Columns and labels:
[1] = target: T1, full-length SHP2 (1-528) (Homo sapiens, UniProt Q06124); assay: SHP2 allosteric inhibition assay (DiFMUP substrate); assay type: biochemical; settings: full length SHP2, enzymatic assay
T1 construct: The SHP2 protein (Aa 1–528) was cloned into a pET-21a(+) vector; His; made in house; host or cells: E. coli BL21(DE3)
T1 sequence (Q06124 1-528): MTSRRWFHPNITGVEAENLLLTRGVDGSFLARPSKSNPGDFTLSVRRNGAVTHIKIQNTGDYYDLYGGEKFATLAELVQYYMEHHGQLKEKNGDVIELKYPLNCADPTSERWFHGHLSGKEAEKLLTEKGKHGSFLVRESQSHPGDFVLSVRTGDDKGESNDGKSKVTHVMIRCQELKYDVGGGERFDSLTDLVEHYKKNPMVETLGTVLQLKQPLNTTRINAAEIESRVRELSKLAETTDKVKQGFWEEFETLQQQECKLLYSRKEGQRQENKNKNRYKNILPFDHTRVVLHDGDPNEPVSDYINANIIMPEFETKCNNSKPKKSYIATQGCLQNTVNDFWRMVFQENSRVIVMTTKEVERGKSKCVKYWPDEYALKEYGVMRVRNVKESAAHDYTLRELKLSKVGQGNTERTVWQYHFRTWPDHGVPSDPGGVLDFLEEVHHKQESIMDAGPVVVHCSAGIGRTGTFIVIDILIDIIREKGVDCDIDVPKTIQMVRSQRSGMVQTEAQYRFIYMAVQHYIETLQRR
Protocol: The SHP2 protein (Aa 1–528) was cloned into a pET-21a(+) vector. Bacterial BL21(DE3) (Novagen) was used as an expression host, and the induction of protein expression was carried out in LB media with 1 mM IPTG at 18 °C overnight. Cell pellets were stored at −80 °C for subsequent protein purification. Protein purification was conducted at 4 °C. Frozen cell pellets were lysed by sonication in 40 mL cold lysis buffer (50 mM Tris-HCl, pH 8.0, 150 mM NaCl, 5 mM imidazole, and 1 mM PMSF) per liter cell pellet. Cell lysates were clarified by centrifuging for 15 min at 6000 rpm. The supernatant was incubated with HisPur Ni-NTA resin (Thermo Scientific, Waltham, MA, USA) for 2 h, and then packed onto a column and washed with 50 resin volume of buffer A (50 mM Tris-HCl, pH 8.0, 500 mM NaCl, 5 mM imidazole). The HIS-tagged proteins were eluted with Buffer B (50 mM Tris-HCl, pH = 8.0, 500 mM NaCl, 300 mM imidazole,). Pooled HIS-protein-containing fractions were concentrated, loaded onto a HiLoad 26/600 Superdex 75 column (GE Healthcare Biosciences, Piscataway, NJ, USA), and eluted with storage buffer (50 mM Tris-HCl, pH 8.0, 150 mM NaCl, 1 mM DTT, 10% glycerol). Proteins used for inhibition assays were purified using Ni-NTA resin (Qiagen, Hilden, Germany) followed by size exclusion column chromatography (ÄKTA pure, Cytiva, Marlborough, MA, USA) and the purity was determined to be >95% by SDS-PAGE and Coomassie staining. The protein was aliquoted and stored at −80 °C.
The catalytic activity of SHP2 (1-528) was assayed with 6,8-Difluoro-4-Methylumbelliferyl Phosphate (DiFMUP, Invitrogen, cat# D6567) as a substrate in 3,3-Dimethylglutaric acid (DMG) buffer (50 mM DMG, pH 7.0, 1 mM EDTA, 18 mM NaCl, 0.01% Triton X-100) at 25 °C. To determine the IC50 values, the assays were performed in 96-well plates (Corning Costar 3915). Series diluted compounds were incubated with 0.5 nM of SHP2 and 0.5 μM of peptide IRS1_pY1172(dPEG8)pY1222 (sequence H2N-LN(pY)IDLDLV(dPEG8)LST(pY)ASINFQK-amide). After 30 min incubation at room temperature, the substrate DiFMUP was added to the reaction (200 μM final concentration, total reaction volume is […]) and incubated at 25 °C for 10 min. The reaction was then quenched by adding 40 μL of 160 μM bpV(Phen) (Sigma–Aldrich, cat# SML0889) solution. The fluorescence signal was monitored with a CLARIOstar Plus Microplate Spectrophotometer (BMG Labtech) using excitation and emission wavelengths of 340 and 450 nm, respectively. The inhibitordose-response curves were analyzed using normalized IC50 regression curve fitting with control-based normalization. Data were fitted using Prism GraphPad 9.2.0.

[2] = target: T2, SHP2 (Homo sapiens, UniProt Q06124); assay: SHP2 degradation by Western blotting in HEK293 cells; assay type: cell-based; parameters: endogenous in cells; host or cells: HEK293; settings: HEK293 cells; for SHP2 degradation (in words): 1 and 10 µM; for Degradation at 1 μM / Degradation at 10 μM: 16 h treatment
T2 sequence (Q06124 1-593): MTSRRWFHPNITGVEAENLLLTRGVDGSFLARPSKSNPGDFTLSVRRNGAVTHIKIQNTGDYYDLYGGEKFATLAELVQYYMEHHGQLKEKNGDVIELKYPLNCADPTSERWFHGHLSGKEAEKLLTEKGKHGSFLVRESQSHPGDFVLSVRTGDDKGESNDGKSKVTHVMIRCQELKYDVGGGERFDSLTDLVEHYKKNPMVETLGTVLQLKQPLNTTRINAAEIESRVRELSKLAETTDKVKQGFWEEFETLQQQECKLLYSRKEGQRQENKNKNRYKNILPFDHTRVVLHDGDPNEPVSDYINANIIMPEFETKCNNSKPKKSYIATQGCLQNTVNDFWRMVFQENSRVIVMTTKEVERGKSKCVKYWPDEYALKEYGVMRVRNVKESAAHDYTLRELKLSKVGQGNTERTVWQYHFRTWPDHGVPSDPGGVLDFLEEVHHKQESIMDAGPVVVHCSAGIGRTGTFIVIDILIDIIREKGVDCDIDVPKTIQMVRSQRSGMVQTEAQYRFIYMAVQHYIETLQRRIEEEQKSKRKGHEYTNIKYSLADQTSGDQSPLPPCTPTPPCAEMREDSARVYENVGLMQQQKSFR
Protocol: HEK293, SKBR3, U2OS, MCF7 and A549 cells were grown in DMEM supplemented with 10% FBS, penicillin (50 units/mL), and streptomycin (50 μg/mL) in a 37 °C incubator containing 5% CO2. […] For western-blot analysis, protein samples were separated by SDS-PAGE, transferred to nitrocellulose membranes, and incubated overnight at 4 °C with corresponding primary antibodies diluted in 5% BSA in phosphate-buffered saline Tween (PBST). SuperSignal™ West Pico PLUS (PI34580; Thermo Scientific) was used to visualize the antibodies in the bioanalytical imaging system (Azure Biosystems c500). […] Anti-PTP1B (ab244207) antibody was purchased from Abcam. For colony formation assay, a total of approximately 200–500 cells were seeded to each well in a 12-well plate.
Supplemental Figures, Schemes, and Tables:
Figure S1. Western blots of degradation assay for PROTAC screening. (A) Degradation assay of
compo un ds i n Table 1 at 1 μM fo r 16 hours in H EK29 3 cells. (B) Degradation assay of compounds in Table
1 at 10 μM for 16 hours in HEK293 cells. (C) Degradation assay of compounds in Table 2 at 1 μM for 16

[3] = Decomposition of CRBN-based PROTACs in DMEM media or water (LCMS); assay type: physicochemical; settings: 10 μM, within 3 h, DMEM cell media or water, room temperature
From the text: With the desired SHP2 ligand in hand, we synthesized an initial set of PROTAC molecules using pomalidomide or lenalidomide as a ligand of the E3 ligase Cereblon (CRBN), which is one of the most productive E3 in the development of PROTACs. […] This observation is consistent with the fact that phthalimides can be smoothly hydrolyzed in the presence of water and an organic base, as these PROTAC compounds contain a basic aliphatic amino group. Given that this free amino group in the allosteric inhibitors is essential for the binding affinity to SHP2 [28], we reasoned that pomalidomide or lenalidomide-based CRBN ligands are not suitable for the development of in vivo efficacious SHP2 degraders in this study due to stability considerations.
Scheme S1. Decomposition of CRBN-based PROTACs in the presence of water. 10 μM compound 11 or
12 was incubated in DMEM media or water for 3 hours. The fina l co ncentrations of the compounds at
the endpoint were quantified by LCMS.
Table S1. Enzymatic IC50s of first generation SHP2 PROTACs against full length SHP2
Compound ID Linker Structure Linker Length (atom) SHP2 IC50 (n M) […]

| Compound | IC50 [1] [µM] | SHP2 degradation (in words) [2] | Degradation at 1 μM [2] [%] | Degradation at 10 μM [2] [%] | compound converted into ring-opened products 13 [3] |
| --- | --- | --- | --- | --- | --- |
| Cc1ncsc1-c1ccc([C@H](C)NC(=O)[C@@H]2C[C@@H](O)CN2C(=O)[C@@H](NC(=O)CCCCCNC(=O)CCCCCC2(CN)CCN(c3cnc(Sc4cccc(Cl)c4Cl)c(N)n3)CC2)C(C)(C)C)cc1 [SC5, (2S,4R)-1-((S)-2-(6-(6-(1-(6-amino-5-((2,3-dichlorophenyl)thio)pyrazin-2-yl)-4-(aminomethyl)piperidin-4-yl)hexanamido)hexanamido)-3,3-dimethylbutanoyl)-4-hydroxy-N-((S)-1-(4-(4-methylthiazol-5-yl)phenyl)ethyl)pyrrolidine-2-carboxamide] | 0.139 ± 0.0104 | negligible to modest degradation | <10 | <10 |  |
| Cc1ncsc1-c1ccc([C@H](C)NC(=O)[C@@H]2C[C@@H](O)CN2C(=O)[C@@H](NC(=O)CCCCCCCNC(=O)CCCCCC2(CN)CCN(c3cnc(Sc4cccc(Cl)c4Cl)c(N)n3)CC2)C(C)(C)C)cc1 [SC7, (2S,4R)-1-((S)-2-(8-(6-(1-(6-amino-5-((2,3-dichlorophenyl)thio)pyrazin-2-yl)-4-(aminomethyl)piperidin-4-yl)hexanamido)octanamido)-3,3-dimethylbutanoyl)-4-hydroxy-N-((S)-1-(4-(4-methylthiazol-5-yl)phenyl)ethyl)pyrrolidine-2-carboxamide] | 0.124 ± 0.0216 | negligible to modest degradation | <10 | 15 |  |
| Cc1ncsc1-c1ccc([C@H](C)NC(=O)[C@@H]2C[C@@H](O)CN2C(=O)[C@@H](NC(=O)CCCCCCCCCNC(=O)CCCCCC2(CN)CCN(c3cnc(Sc4cccc(Cl)c4Cl)c(N)n3)CC2)C(C)(C)C)cc1 [SC9, (2S,4R)-1-((S)-2-(10-(6-(1-(6-amino-5-((2,3-dichlorophenyl)thio)pyrazin-2-yl)-4-(aminomethyl)piperidin-4-yl)hexanamido)decanamido)-3,3-dimethylbutanoyl)-4-hydroxy-N-((S)-1-(4-(4-methylthiazol-5-yl)phenyl)ethyl)pyrrolidine-2-carboxamide] | 0.132 ± 0.0087 | negligible to modest degradation |  | 25 |  |
| Cc1ncsc1-c1ccc([C@H](C)NC(=O)[C@@H]2C[C@@H](O)CN2C(=O)[C@@H](NC(=O)CCCCCCCCCCNC(=O)CCCCCC2(CN)CCN(c3cnc(Sc4cccc(Cl)c4Cl)c(N)n3)CC2)C(C)(C)C)cc1 [SC10, (2S,4R)-1-((S)-2-(11-(6-(1-(6-amino-5-((2,3-dichlorophenyl)thio)pyrazin-2-yl)-4-(aminomethyl)piperidin-4-yl)hexanamido)undecanamido)-3,3-dimethylbutanoyl)-4-hydroxy-N-((S)-1-(4-(4-methylthiazol-5-yl)phenyl)ethyl)pyrrolidine-2-carboxamide] | 0.122 ± 0.0191 |  | 36 |  |  |
| Cc1ncsc1-c1ccc([C@H](C)NC(=O)[C@@H]2C[C@@H](O)CN2C(=O)[C@@H](NC(=O)CCCCCCCCCCCNC(=O)CCCCCC2(CN)CCN(c3cnc(Sc4cccc(Cl)c4Cl)c(N)n3)CC2)C(C)(C)C)cc1 [SC11, (2S,4R)-1-((S)-2-(12-(6-(1-(6-amino-5-((2,3-dichlorophenyl)thio)pyrazin-2-yl)-4-(aminomethyl)piperidin-4-yl)hexanamido)dodecanamido)-3,3-dimethylbutanoyl)-4-hydroxy-N-((S)-1-(4-(4-methylthiazol-5-yl)phenyl)ethyl)pyrrolidine-2-carboxamide] | 0.105 ± 0.0156 |  | 27 | 64 |  |
| NCC1(CCCCCC(=O)NCCCCCC(=O)Nc2cccc3c2C(=O)N(C2CCC(=O)NC2=O)C3=O)CCN(c2cnc(Sc3cccc(Cl)c3Cl)c(N)n2)CC1 (stereo not drawn) [compound 11, 6-(1-(6-amino-5-((2,3-dichlorophenyl)thio)pyrazin-2-yl)-4-(aminomethyl)piperidin-4-yl)-N-(6-((2-(2,6-dioxopiperidin-3-yl)-1,3-dioxoisoindolin-4-yl)amino)-6-oxohexyl)hexanamide] |  |  |  |  | over 90% |
| NCC1(CCCCCC(=O)NCCCCCC(=O)Nc2cccc3c2CN(C2CCC(=O)NC2=O)C3=O)CCN(c2cnc(Sc3cccc(Cl)c3Cl)c(N)n2)CC1 (stereo not drawn) [compound 12, 6-(1-(6-amino-5-((2,3-dichlorophenyl)thio)pyrazin-2-yl)-4-(aminomethyl)piperidin-4-yl)-N-(6-((2-(2,6-dioxopiperidin-3-yl)-1-oxoisoindolin-4-yl)amino)-6-oxohexyl)hexanamide] |  |  |  |  | over 90% |
